Source: patent publication US9776991B2, “Thienomethylpiperazine derivatives as inhibitors of soluble epoxide hydrolase” (SANOFI, priority 2013, dated 2017)
Structures can show the parent of a compound that is named as a salt.

target: recombinant sEH (soluble epoxide hydrolase, EPHX2) (Homo sapiens (Human), UniProt P34913); assay: biochemical fluorometric sEH inhibition assay with Phome substrate; conditions: recombinant sEH purified from Sf9 insect cells, 2 nM sEH, 5 μM Phome, 60 minutes at 30° C.
Sequence (P34913 whole entry): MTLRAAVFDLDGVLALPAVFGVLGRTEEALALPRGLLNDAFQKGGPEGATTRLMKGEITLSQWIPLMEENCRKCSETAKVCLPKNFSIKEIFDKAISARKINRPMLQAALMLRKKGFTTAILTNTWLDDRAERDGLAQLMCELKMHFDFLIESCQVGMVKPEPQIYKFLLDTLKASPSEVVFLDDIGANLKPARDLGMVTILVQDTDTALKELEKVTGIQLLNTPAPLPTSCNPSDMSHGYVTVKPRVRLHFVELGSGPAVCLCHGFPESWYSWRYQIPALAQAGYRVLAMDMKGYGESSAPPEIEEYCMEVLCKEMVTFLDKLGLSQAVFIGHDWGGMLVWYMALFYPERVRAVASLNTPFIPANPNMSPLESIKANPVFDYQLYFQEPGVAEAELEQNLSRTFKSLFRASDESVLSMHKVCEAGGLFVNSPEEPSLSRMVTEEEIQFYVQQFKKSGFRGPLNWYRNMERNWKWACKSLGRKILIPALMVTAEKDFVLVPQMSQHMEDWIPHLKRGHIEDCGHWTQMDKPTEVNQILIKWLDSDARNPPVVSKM
How it was run: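 Human sEH expressed in Sf9 cells (2 nM final) pre-incubated 15 min at 30 °C with compound (0.0001-10 μM), then 5 μM Phome added for 60 min at 30 °C in 25 mM Hepes with 0.01% albumin. Fluorescent 6-methoxy-2-naphthaldehyde read before substrate addition and at the end; IC50 from % inhibition.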

SMILES | IC50
O=C1CCC(C(=O)N2CCN(Cc3ccc(C(=O)NCc4ccccc4OC(F)(F)F)s3)CC2)N1 (stereo not shown) [Example 102] | 2.33 nM
COc1ccc(CNC(=O)c2ccc(CN3CCN(c4ccc(CO)cn4)CC3)s2)c(OC(F)(F)F)c1 [Example 146] | 1.94 nM
Cc1cc(=O)oc(C)c1C(=O)N1CCN(Cc2ccc(C(=O)NCc3ccc(Cl)cc3Cl)s2)CC1 [Example 59] | 1.15 nM
COc1ccc(CNC(=O)c2ccc(CN3CCN(c4ccc(O)nn4)CC3)s2)c(OC(F)(F)F)c1 [Example 22] | 2.8 nM
Cc1noc(C)c1C(=O)N1CCN(Cc2ncc(C(=O)NCc3ccc(Cl)cc3Cl)s2)CC1 [Example 160] | 1.41 nM
Cc1cccc(C(=O)N2CCN(Cc3ncc(C(=O)NCc4ccc(Cl)cc4Cl)s3)CC2)n1 [Example 174] | 14.8 nM
Cc1cc(=O)oc(C)c1C(=O)N1CCN(Cc2ccc(C(=O)NCc3ccccc3OC(F)F)s2)CC1 [Example 150] | 1.87 nM
COc1cc(CNC(=O)c2ccc(CN3CCN(C(=O)[C@H](O)C(C)C)CC3)s2)ccn1 [Example 30, 5-[4-((R)-2-Hydroxy-3-methyl-butyryl)-piperazin-1-ylmethyl]-thiophene-2-carboxylic acid (2-methoxy-pyridin-4-ylmethyl)-amide] | 0.803 nM
Cc1cccnc1N1CCN(Cc2ccc(C(=O)NCc3ccccc3OC(F)(F)F)s2)CC1=O [Example 112] | 1.64 nM
COCC(=O)N1CCN(Cc2ncc(C(=O)NCc3ccc(Cl)cc3Cl)s2)CC1 [Example 192] | 35.3 nM
Cc1ccc(O)c(C(=O)N2CCN(Cc3ccc(C(=O)NCc4ccccc4OC(F)(F)F)s3)CC2)n1 [Example 79] | 2.54 nM
CN1CC(C(=O)N2CCN(Cc3ccc(C(=O)NCc4ccccc4OC(F)(F)F)s3)CC2)CC1=O (stereo not shown) [Example 44] | 2.72 nM
COc1ccc(CNC(=O)c2ccc(CN3CCN(C(=O)C(C)O)CC3)s2)c(OC(F)(F)F)c1 (stereo not shown) [Example 32] | 0.756 nM
CC(C(=O)N1CCN(Cc2ccc(C(=O)NCc3ccccc3OC(F)(F)F)s2)CC1)N(C)C (stereo not shown) [Example 138] | 6.27 nM
O=C(NCc1ccccc1OC(F)(F)F)c1ccc(CN2CCN(c3nccs3)C(=O)C2)s1 [Example 47] | 2.69 nM
Cn1cccc1C(=O)N1CCN(Cc2ccc(C(=O)NCc3ccccc3C(F)(F)F)s2)CC1 [Example 51] | 0.994 nM
Cc1cc(=O)oc(C)c1C(=O)N1CCN(Cc2ccc(C(=O)NCC3CCc4ccccc43)s2)CC1 (stereo not shown) [Example 23] | 2.75 nM
CN1CC(C(=O)N2CCN(Cc3ncc(C(=O)NCc4ccc(Cl)cc4Cl)s3)CC2)CC1=O (stereo not shown) [Example 197] | 49.5 nM
Cc1noc(C)c1C(=O)N1CCN(Cc2ccc(C(=O)NCc3ccc(Cl)cc3Cl)s2)CC1 [Example 2] | 0.502 nM
Cc1cccnc1C(=O)N1CCN(Cc2ncc(C(=O)NCc3ccc(Cl)cc3Cl)s2)CC1 [Example 194] | 32 nM
O=C(NCc1ccccc1C(F)(F)F)c1ccc(CN2CCN(C(=O)c3nccc4ccccc34)CC2)s1 [Example 45] | 2.67 nM
CC1(C)C(=O)NCCN1Cc1ccc(C(=O)NCc2ccccc2OC(F)(F)F)s1 [Example 62] | 1.14 nM
Cc1cc(=O)oc(C)c1C(=O)N1CCN(Cc2ccc(C(=O)NCc3ccc(C#N)cc3Cl)s2)CC1 [Example 80] | 2.53 nM
CC(O)C(=O)N1CCN(Cc2ccc(C(=O)NCc3ccc(C#N)cc3Cl)s2)CC1 (stereo not shown) [Example 61] | 1.18 nM
CC[C@@H](O)C(=O)N1CCN(Cc2ncc(C(=O)NCc3ccc(Cl)cc3Cl)s2)CC1 [Example 179] | 24.1 nM

SMILES | IC50
O=C(NCc1ccccc1C(F)(F)F)c1ccc(CN2CCN(C(=O)COc3ccccc3)CC2)s1 [Example 17] | 0.699 nM
Cc1cc(N2CCN(Cc3ccc(C(=O)NCc4ccc(Cl)cc4Cl)s3)CC2)cc(C)n1 [Example 120, 5-[4-(2,6-Dimethyl-pyridin-4-yl)-piperazin-1-ylmethyl]-thiophene-2-carboxylic acid 2,4-dichloro-benzylamide] | 5.3 nM
NC1(C(=O)N2CCN(Cc3ccc(C(=O)NCc4ccccc4OC(F)(F)F)s3)CC2)CC1 [Example 115, 5-[4-(1-Amino-cyclopropanecarbonyl)-piperazin-1-ylmethyl]-thiophene-2-carboxylic acid 2-trifluoromethoxy-benzylamide, trifluoroacetate] | 1.64 nM
O=C(NCc1ccccc1C(F)(F)F)c1ccc(CN2CCN(C(=O)c3ccc4nccn4c3)CC2)s1 [Example 15] | 0.604 nM
O=C(NCc1ccc(Cl)cc1Cl)c1cnc(CN2CCN(C(=O)c3nc(F)ccc3F)CC2)s1 [Example 180] | 8.46 nM
CSCCC(=O)N1CCN(Cc2ncc(C(=O)NCc3ccc(Cl)cc3Cl)s2)CC1 [Example 164] | 11.4 nM
CC1(C)SCN[C@H]1C(=O)N1CCN(Cc2ccc(C(=O)NCc3ccccc3OC(F)(F)F)s2)CC1 [Example 110] | 2.16 nM
CN1CCC(C(=O)N2CCN(Cc3ncc(C(=O)NCc4ccc(Cl)cc4Cl)s3)CC2)CC1 [Example 190] | > 1000 nM
COc1cc(CNC(=O)c2ccc(CN3CCN(C(=O)c4nc(F)ccc4F)CC3)s2)ccn1 [Example 149, 5-[4-(3,6-Difluoro-pyridine-2-carbonyl)-piperazin-1-ylmethyl]-thiophene-2-carboxylic acid (2-methoxy-pyridin-4-ylmethyl)-amide] | 8.2 nM
CO[C@H](C)C(=O)N1CCN(Cc2ccc(C(=O)NCc3ccccc3OC(F)(F)F)s2)CC1 [Example 93] | 1.31 nM
O=C(NCc1ccccc1OC(F)(F)F)c1ccc(CN2CCN(CC(F)(F)F)C(=O)C2)s1 [Example 111] | 2.23 nM
CNC(=O)c1cccnc1N1CCN(Cc2ccc(C(=O)NCc3ccc(OC)cc3OC(F)(F)F)s2)CC1 [Example 74] | 2.66 nM
O=C(NCc1ccc(Cl)cc1Cl)c1cnc(CN2CCN(C(=O)C3CCO3)CC2)s1 (stereo not shown) [Example 208] | 9.67 nM
O=C(NCc1ccc(Cl)cc1Cl)c1cnc(CN2CCN(C(=O)CO)CC2)s1 [Example 181] | 52.1 nM
O=C(NCc1ccccc1OC(F)(F)F)c1ccc(CN2CCN(c3nncs3)CC2)s1 [Example 142] | 1.82 nM
NC1(C(=O)N2CCN(Cc3ccc(C(=O)NCc4ccc(Cl)cc4Cl)s3)CC2)CCOCC1 [Example 133] | 2.14 nM
CN1CCC[C@H]1C(=O)N1CCN(Cc2ncc(C(=O)NCc3ccc(Cl)cc3Cl)s2)CC1 [Example 184] | 115 nM
O=C(NCc1ccccc1C(F)(F)F)c1ccc(CN2CCN(C(=O)c3cnn4ccccc34)CC2)s1 [Example 151] | 1.97 nM
COc1ccc(CNC(=O)c2ccc(CN3CCN(c4cc(C)ccn4)CC3)s2)c(OC(F)(F)F)c1 [Example 127] | 1.73 nM
Cc1noc(C)c1C(=O)N1CCN(Cc2ccc(C(=O)NCc3ccccc3OC(F)(F)F)s2)CC1 [Example 122] | 1.74 nM
COc1cc(CNC(=O)c2ccc(CN3CCN(C(=O)c4c(C)n[nH]c4C)CC3)s2)ccn1 [Example 139, 5-[4-(3,5-Dimethyl-1H-pyrazole-4-carbonyl)-piperazin-1-ylmethyl]-thiophene-2-carboxylic acid (2-methoxy-pyridin-4-ylmethyl)-amide trifluoroacetate] | 2.85 nM
COCCCC(=O)N1CCN(Cc2ccc(C(=O)NCc3ccccc3OC(F)(F)F)s2)CC1 [Example 140] | 1.81 nM
O=C(NCc1ccccc1C(F)(F)F)c1ccc(CN2CCN(C(=O)c3ccc(F)cc3Cl)CC2)s1 [Example 64] | 1.25 nM
O=C(NCc1ccc(Cl)cc1Cl)c1ccc(CN2CCN(C(=O)COc3ccccc3)CC2)s1 [Example 42] | 2.7 nM
